Key:
C57BL/6J male mice [1] = test: Novel object recognition (NOR); format: in vivo, mouse; details: for memory performance in testing phase of NOR: 3 month-old WT mice, single acute hippocampal stereotactic injection 12 hours before training phase
C57BL/6J male mice [2] = test: Contextual fear conditioning (CFC); format: in vivo, mouse; details: for memory performance in testing phase of CFC: 3 month-old WT mice, single acute hippocampal stereotactic injection 12 hours before training phase
[3] = tested on: hippocampal autophagy (LC3-II); details: 16 month-old mice, 12 hours after hippocampal stereotactic injection, 1 μg/hemisphere, compared with 3 month-old mice
C57BL/6J male mice [4] = details: 16 month-old mice, local hippocampal stereotactic injection 1 μg/hemisphere, versus 3 month-old mice
[5] = 16 month-old mice, 14 days of daily intraperitoneal injections, 450 μg
[6] = 16 month-old mice, local hippocampal stereotactic injection 1 μg/hemisphere, versus 3 month-old mice

Molecule | memory performance in testing phase of NOR (C57BL/6J male mice [1]) | memory performance in testing phase of CFC (C57BL/6J male mice [2]) | age-related memory decline, NOR (C57BL/6J male mice [1]; [5]) | age-related memory deficits, NOR (C57BL/6J male mice [1]; [6]) | age-related memory decline, CFC (C57BL/6J male mice [2]; [5]) | age-related memory deficits, CFC (C57BL/6J male mice [2]; [6]) | LC3-II levels (Western blot) [3] | age-related memory deficits, OLM (C57BL/6J male mice [4])
CC(=O)N[C@@H](CC(C)C)C(=O)N[C@@H](CC(C)C)C(=O)N[C@H](C=O)CCCNC(=N)N [leupeptin, Leupeptin, reference compound] | significant decrease in memory performance | significant decrease in memory performance | – | – | – | – | – | –
Fc1ccc(CNc2ncnc3ccc(F)cc23)cc1 [Spautin-1, reference compound] | significant decrease in memory performance | significant decrease in memory performance | – | – | – | – | – | –
YGRKKRRQRRRGGTNVFNATFEIWHDGEFGT [TAT-Beclin 1] | enhanced learning/memory capacities | enhanced learning/memory capacities | counteract normal age-related memory decline | rescue age-related memory deficits | counteract normal age-related memory decline | rescue age-related memory deficits | restored LC3-II levels in old (16 months) to the level of young (3 months) mice | rescue age-related memory deficits
CCN(CC)CCCC(C)Nc1ccnc2cc(Cl)ccc12 (centres unmarked) [chloroquine, Chloroquine, reference compound] | significant decrease in memory performance | significant decrease in memory performance | – | – | – | – | – | –

Source: patent US20210379146A1, “METHOD TO RESTORE OR IMPROVE COGNITIVE FUNCTIONS” (INSERM (INSTITUT NATIONAL DE LA SANTÉ ET DE LA RECHERCHE …, priority 2018, published 2021)
